In patent US6664250B2, “Lactam derivatives as antiarrhythmic agents” (Bristol-Myers Squibb Co., priority 1998, dated 2003):
Where a name gives a salt, the structure may show the parent alone.

SMILES	melting point
CCCOc1ccc2c(c1)C(=O)NC(CC(C)(C)C)C2 (stereo not shown) [Example 31]	88 to 90 °C
CCCOc1ccc2c(c1)C(=O)NC(CC(C)(C)C)CC2 (stereo not shown) [Example 22]	132 to 133 °C
CC(C)(C)CC1Cc2ccc(OCc3ccccc3)cc2C(=O)N1 (stereo not shown) [Example 25]	139 to 140 °C
CC(C)COc1ccc2c(c1)C(=O)NC(CC(C)(C)C)CC2 (stereo not shown) [Example 27]	148 to 149 °C
CCOc1ccc2c(c1)C(=O)NC(CC(C)(C)C)CC2 (stereo not shown) [Example 21]	159 to 160 °C
CC(C)COc1ccc2c(c1)C(=O)NC(CC(C)(C)C)C2 (stereo not shown) [Example 32]	142 to 143 °C
COc1ccc2c(c1)C(=O)NC(CC(C)(C)C)C2 (stereo not shown) [Example 38]	113 to 114 °C
COc1ccc2c(c1)CCC(C)(CN1CCC(c3ccccc3)CC1)NC2=O (stereo not shown) [Example 5, 2,3,4,5-Tetrahydro-7-methoxy-3-methyl-3-[(4-phenyl-1-piperidinyl)methyl]-1H-2-benzazepin-1-one]	127 to 128 °C
OCC1c2ccc(OCc3ccccc3)cc2CCN1CCN1CCC(c2ccccc2)CC1 (stereo not shown) (as salt: hydrochloride)	205 to 210 °C (dec.)
COc1ccc2c(c1)CCN(CCN1CCC(c3ccccc3)CC1)C2=O (as salt: hydrochloride) [Example 1, 3,4-Dihydro-6-methoxy-2-[2-(4-phenyl-1-piperidinyl)ethyl]-1(2H)-isoquinolinone, Monohydrochloride]	232 to 235 °C
COc1ccc2c(c1)CC(C)(CN1CCC(c3ccccc3)CC1)NC2=O (stereo not shown) [Example 6]	93 to 95 °C
CCOc1ccc2c(c1)C(=O)NC(CC(C)(C)C)C2 (stereo not shown) [Example 30]	129 to 130 °C
CC(C)(C)CC1CCc2ccc(OCc3ccccc3)cc2C(=O)N1 (stereo not shown) [Example 23]	142 to 143 °C

The next lines start with the values.

melting point	SMILES
118 to 119 °C	COc1ccc2c(c1)NC(=O)C(CC(C)(C)C)C2 (stereo not shown) [Example 37]
150 to 151 °C	CC(C)(C)CC1CCc2ccc(OCc3ccccc3)cc2NC1=O (stereo not shown) [Example 26]
109 to 110 °C	CCCOc1ccc2c(c1)NC(=O)C(CC(C)(C)C)C2 (stereo not shown) [Example 36]
113 to 114 °C	CC(C)Oc1ccc2c(c1)C(=O)NC(CC(C)(C)C)CC2 (stereo not shown) [Example 29]
132 to 134 °C	CC(C)Oc1ccc2c(c1)NC(=O)C(CC(C)(C)C)CC2 (stereo not shown) [Example 34]
135 to 136 °C	CC(C)Oc1ccc2c(c1)C(=O)NC(CC(C)(C)C)C2 (stereo not shown) [Example 37]
136 to 138 °C	CCOc1ccc2c(c1)NC(=O)C(CC(C)(C)C)CC2 (stereo not shown) [Example 28]
139 to 140 °C	CC(C)COc1ccc2c(c1)NC(=O)C(CC(C)(C)C)CC2 (stereo not shown) [Example 33]
117 to 119 °C	CCCOc1ccc2c(c1)NC(=O)C(CC(C)(C)C)CC2 (stereo not shown) [Example 24]
